Data published in article PMC7318222, “A Family of Water‐Immiscible, Dipolar Aprotic, Diamide Solvents from Succinic Acid” (Chemsuschem, 2020).

Target: T1, PR (Homo sapiens, UniProt P06401)
T1 construct: expression construct for the full-length human receptor under investigation; expressed in transfected cells; host or cells: human U2-OS cells (ATCC HTB-96), stably transfected
T1 sequence (P06401 1-933): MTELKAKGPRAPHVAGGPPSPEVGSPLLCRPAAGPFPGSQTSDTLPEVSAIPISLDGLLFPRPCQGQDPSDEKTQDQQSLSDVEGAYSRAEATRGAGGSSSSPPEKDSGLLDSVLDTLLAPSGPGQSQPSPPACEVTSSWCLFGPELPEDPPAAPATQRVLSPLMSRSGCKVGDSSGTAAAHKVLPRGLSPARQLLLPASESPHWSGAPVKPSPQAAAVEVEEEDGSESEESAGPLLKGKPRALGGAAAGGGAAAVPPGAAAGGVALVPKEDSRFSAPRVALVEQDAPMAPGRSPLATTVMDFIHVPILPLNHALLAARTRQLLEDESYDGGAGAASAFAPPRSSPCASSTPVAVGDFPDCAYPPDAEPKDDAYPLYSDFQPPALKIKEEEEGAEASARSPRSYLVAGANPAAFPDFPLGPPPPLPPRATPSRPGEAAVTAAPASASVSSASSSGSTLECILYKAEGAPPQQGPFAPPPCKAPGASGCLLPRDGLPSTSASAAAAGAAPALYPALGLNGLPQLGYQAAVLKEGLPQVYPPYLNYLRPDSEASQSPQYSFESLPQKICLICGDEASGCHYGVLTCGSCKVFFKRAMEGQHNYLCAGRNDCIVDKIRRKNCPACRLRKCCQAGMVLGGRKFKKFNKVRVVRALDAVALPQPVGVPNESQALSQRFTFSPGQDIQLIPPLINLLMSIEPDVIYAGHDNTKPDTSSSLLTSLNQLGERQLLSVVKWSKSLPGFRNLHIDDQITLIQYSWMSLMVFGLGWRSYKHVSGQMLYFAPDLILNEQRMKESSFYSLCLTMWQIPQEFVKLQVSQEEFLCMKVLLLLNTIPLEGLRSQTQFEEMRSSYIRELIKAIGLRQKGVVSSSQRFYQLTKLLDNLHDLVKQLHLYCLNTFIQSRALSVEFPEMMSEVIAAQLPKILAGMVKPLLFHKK
Experiment: PR-anti CALUX reporter gene assay (antagonistic mode)
Type: cell-based
Design: key: –: no effect observed up to the highest test concentration
Conditions: PC20, 24 h exposure
Description: 99.8% (anhydrous), 4-nitroaniline ≥99.0%, 1-octanol ≥99.0%, diglyme ≥99.0%, DMSO-d6 (99.8% D) and chloroform-d (99.8% D) were purchased from Sigma-Aldrich. Toluene ≥99.0%, hexane ≥99.5%, DCM ≥99.5%, chloroform ≥99.5%, DMSO ≥99.0% were purchased from VWR. N,N-diethyl-4-nitroaniline ≥98.0% was purchased from Alfa Aeser. Cyrene was supplied by Circa group. N-butylpyrrolidinone was supplied by Eastman chemicals. N,N-dimethylformamide 99.9% and N,N-dimethylacetamide 99.9% were purchased from Fischer. The flakes of Ultrason® E3020 P Polyarylethersulfone of 55,000 Da were obtained from INGE.BASF, Germany. The CALUX cell lines have been described previously.[1] They are based on human U2-OS cells (ATCC, HTB-96) stably transfected with an expression construct for the full-length human receptor under investigation, and a reporter construct consisting of multimerized responsive elements for the cognate receptor coupled to a minimal promoter element (TATA) and a luciferase gene. Cells were maintained as described previously,[2] using cell culture media and supplements from Fisher Scientific as described in the experimental procedures section. […]
In vitro reporter gene assays
The automated CALUX assays were carried out similarly as described earlier,[12] with some adaptations. In brief, the assay was performed in CO2 independent medium (Fisher Scientific, […]
supplement (Fisher Scientific, 11574466), 10 U/mL penicillin and 10 µg/mL streptomycin. A cell suspension in assay medium was made of 1 × 10^5cells/mL, and white 384-wells plates were seeded with 30 µl cell suspension/well. After 24 h, exposure medium was prepared. A dilution series in 0.5log unit increments of each test compound (in DMSO) was added to a 96-wells plate containing assay medium (2% v/v). Of this exposure mixture, 30 µl was added to the assay plates containing the CALUX cells, resulting in a final DMSO concentration of 1%. Additionally, DMSO blanks and a full dose response curve of the relevant reference compound were included on each plate. All samples were tested in triplicate. The preparation of the compound dilution series as well as the exposure of the cells were performed on a Hamilton StarLET liquid handling robot coupled to a Cytomat incubator.
Directly after exposure, plates were sealed with non-breathing plate seals (Plate sealer, easy seal transparent; Greiner-Bio-One, 676001). After 24 h the exposure medium was removed using an EL406 washer-dispenser (BioTek) and 10 µl/well triton lysisbuffer was added by the EL406.
Subsequently, the luciferase signal was measured in a luminometer (InfinitePro coupled to a Connect Stacker, both TECAN). In order to be able to detect receptor antagonism, several assays were also performed in antagonistic mode. The assay procedure was as described above, with the only exception that the EC50 concentration of the reference agonist was present during the exposure.
The luminometer data was analysed as follows; the average of the triplicate wells was determined, and the average blank (DMSO) value was subtracted. […] For antagonist- and cytotoxicity experiments, PC20 values were determined instead, which was defined as the concentration where the test compound causes a 20% decrease in the basal signal, which was […]
curve, the signal induction above background (DMSO) was determined, and the concentration where the compound elicited a 1.5-fold increase above background was used as LEC.

Row | SMILES | LEC PR‐anti
1 | CCCCN1CCCC1=O [NBP, N‐Butylpyrrolidinone, reference compound] | –
2 | CCCCN(CCCC)C(=O)CCC(=O)N(CCCC)CCCC [TBSA, N,N,N′,N′‐tetrabutylsuccindiamide] | –
3 | CN1CCCC1=O [NMP, N‐methyl‐2‐pyrrolidone, reference compound] | –
4 | CCCCN(CC)C(=O)CCC(=O)N(CC)CCCC [EBSA, N,N′‐diethyl‐N,N′‐dibutylsuccindiamide] | –
5 | CCCCN(C)C(=O)CCC(=O)N(C)CCCC [MBSA, N,N′‐dimethyl‐N,N′‐dibutylsuccindiamide] | –
